Experiments:
human GLP-1R receptor = target: T1, human GLP-1R receptor (Homo sapiens, UniProt P43220); experiment: GLP-1R low expression cell assay (cAMP TR-FRET, CHO-K1_hGLP-1Rlow_clone10); assay type: cell-based; conditions: CHO-K1_hGLP-1Rlow_clone10 cells, percent activation relative to control GLP-1 peptide
T1 construct: expressed in transfected cells
Procedure: Stable cell lines expressing high and low GLP-1R surface expression are generated in CHO-K1 cells transfected (Fugene 6) with a puromycin selectable DNA plasmid encoding human GLP-1R receptor (accession number: NM_002062.5) under control of an EF1A promoter. Transfected cells are seeded into 24-well plates (9,000 cells/well) containing complete medium and incubated in a humidified incubator at 37° C. with 5% carbon dioxide. After overnight incubation, medium is replaced with complete medium supplemented with puromycin (6 μg/mL) and refreshed every 2-3 days to select for stably transfected cells. Individual pools of selected cells are expanded prior to analysis for responsiveness to GLP-1 control peptide using a TR-FRET assay to detect cAMP (LANCE Ultra cAMP Assay, Perkin Elmer). Briefly, cells are collected in Versene solution, plated in 384-well plates (1,000 cells/well) and combined with serially diluted GLP-1R control peptide (10 nL) using an acoustic dispenser (ECHO). Plates are incubated for 30 minutes at 25° C. prior to the addition of EU-cAMP tracer (5 μL) and Ulight-anti-cAMP (5 μL) reagents to each well, followed by 15 minutes incubation at 25° C. TR-FRET signal is detected using an EnVision Multimode Plate Reader (excitation=320 nm; emission=615 and 655 nm). Dose-response curves are used to generate EC50 values as a measure of responsiveness to the GLP-1R control peptide. Selected cell lines are monitored for responsiveness over multiple passages to ensure stability. […] Briefly, GLP-1R expression is analyzed by flow cytometry using a fluorescein-labeled Exendin-4 peptide fluorescent probe (FLEX). Cells are harvested in Versene solution and washed 3-times with PBS+0.5% BSA before incubation with FLEX reagent (10 μM) for 2 hours at room temperature. After incubation, cells are washed 3-times in PBS+0.5% BSA before final resuspension in PBS prior to analysis by flow cytometry to measure FLEX mean fluorescence intensity (MFI) as a measure of GLP-1R expression on the cell surface.
For compound testing in the CHO-K1_hGLP-1Rlow_clone10 cell lines, cells are seeded in 384-well plates (1,000 cells/well). Test compounds are serially diluted in DMSO (10-point, 3-fold dilution), added to wells using an ECHO dispenser (10 nL/well) and plates are centrifuged for 1 min and agitated for 2 min at room temperature prior to 30-minute incubation at 25° C. After incubation, Eu-cAMP (5 μL) and Ulight-anti-cAMP (5 μL) reagents are added to each well, followed by centrifugation for 1 minute, agitation for 2 minutes at room temperature, and final incubation of the plates at 25° C. for 15 minutes. Plates are read using an EnVision microplate reader (excitation=320 nm; emission=615 and 655 nm). Dose-response curves are generated from duplicate wells based on percent activation calculated relative to a control GLP-1 peptide agonist that was run in parallel. EC50 values are determined by fitting percent activation as a function of compound concentration using the Hill equation (XLfit).
Stable cell lines expressing high and low GLP-1R surface expression were generated in CHO-K1 cells transfected (Fugene 6) with a puromycin selectable DNA plasmid encoding human GLP-1R receptor (accession number: NM_002062.5) under control of an EF1A promoter. Transfected cells were seeded into 24-well plates (9,000 cells/well) containing complete medium and incubated in a humidified incubator at 37° C. with 5% carbon dioxide. After overnight incubation, medium was replaced with complete medium supplemented with puromycin (6 μg/mL) and refreshed every 2-3 days to select for stably transfected cells. Individual pools of selected cells were expanded prior to analysis for responsiveness to GLP-1 control peptide using a TR-FRET assay to detect cAMP (LANCE Ultra cAMP Assay, Perkin Elmer).

Rat pharmacokinetics [1] = assay type: in vivo; design: AUC: concentration or dose not given beside the values; conditions: male Sprague-Dawley rats, plasma, route not given; for half-life: read-out: Rat T1/2 (converted)
Procedure: Intravenous dosing: Compounds were formulated at 0.5 mg/mL in a solution comprising 5% polyethylene glycol 400 and 95% (12% (w/v) sulfobutyl-β-cyclodextrin in water) (v/v). Formulated compounds were sterile filtered through a 0.22 micron filter before dosing. Compounds were administered to male, 7-11-week-old Sprague-Dawley rats by jugular vein cannula infusion over 30 minutes at a dose of 1 mg/kg. […]
Sample collection: Blood collections of about 0.2 mL per time point were performed from jugular vein or other suitable site of each animal, into pre-chilled commercial EDTA-K2 tubes and placed on wet ice until centrifugation. Blood samples were processed for plasma by centrifugation at approximately 4° C., 3,200 g for 10 min. Plasma was collected and transferred into pre-labeled 96 well plate or polypropylene tubes, quick frozen over dry ice and kept at −60° C. or lower until LC-MS/MS analysis.
Data analysis: Plasma concentration versus time data was plotted in graph and analyzed by non-compartmental approaches using the Phoenix WinNonlin 6.3 software program. Related PK parameters were calculated according to dosing route, e.g., CL, Vdss and C0 for intravenous administration, Cmax, Tmax or % F for extravascular administration, and T1/2, AUC(0-t), AUC(0-inf), MRT(0-t), MRT(0-inf) for all routes.

Rat pharmacokinetics [2] = assay type: in vivo; conditions: male Sprague-Dawley rats, plasma, route not stated in table (IV or oral gavage 10 mL/kg of 0.3 or 0.6 mg/mL)
[3] = Passive permeability and efflux ratio (Caco-2); assay type: in vitro ADME; conditions: human
Procedure: Caco-2 cells (clone C2BBe1) are obtained, e.g., from American Type Culture Collection (Manassas, VA). Cell monolayers are grown to confluence on collagen-coated, microporous membranes in 12-well assay plates. The permeability assay buffer is Hanks' balanced salt solution containing 10 mM HEPES and 15 mM glucose at a pH of 7.4. The buffer in the receiver chamber also contains 1% bovine serum albumin. The dosing solution concentration is 5 μM of test article in the assay buffer. Cell monolayers are dosed on the apical side (A-to-B) or basolateral side (B-to-A) and incubated at 37° C. with 5% CO2 in a humidified incubator. Samples are taken from the donor and receiver chambers at 120 minutes. Each determination is performed in duplicate. The flux of lucifer yellow is also measured post-experimentally for each monolayer to ensure no damage is inflicted to the cell monolayers during the flux period. All samples are assayed by LC-MS/MS using electrospray ionization. The apparent permeability (Papp) and percent recovery were calculated as follows: Papp=(dCr/dt)×Vr/(A×CA) (1) Percent Recovery=100×((Vr×Cr^final)+(Vd×Cd^final))/(Vd×CN) (2), where, dCr/dt is the slope of the cumulative receiver concentration versus time in μM s^−1; Vr is the volume of the receiver compartment in cm^3; Vd is the volume of the donor compartment in cm^3; A is the area of the insert (1.13 cm^2 for 12-well); CA is the average of the nominal dosing concentration and the measured 120-minute donor concentration in μM; CN is the nominal concentration of the dosing solution in μM; Cr^final is the cumulative receiver concentration in μM at the end of the incubation period; Cd^final is the concentration of the donor in μM at the end of the incubation period. Efflux ratio (ER) is defined as Papp (B-to-A)/Papp (A-to-B). Rat Pharmacokinetics
Caco-2 cells (clone C2BBe1) were obtained from American Type Culture Collection (Manassas, VA). Cell monolayers were grown to confluence on collagen-coated, microporous membranes in 12-well assay plates. Details of the plates and their certification are shown below. The permeability assay buffer was Hanks' balanced salt solution containing 10 mM HEPES and 15 mM glucose at a pH of 7.4. The buffer in the receiver chamber also contained 1% bovine serum albumin. The dosing solution concentration was 5 μM of test article in the assay buffer. Cell monolayers were dosed on the apical side (A-to-B) or basolateral side (B-to-A) and incubated at 37° C. with 5% CO2 in a humidified incubator. Samples were taken from the donor and receiver chambers at 120 minutes. Each determination was performed in duplicate. The flux of lucifer yellow was also measured post-experimentally for each monolayer to ensure no damage was inflicted to the cell monolayers during the flux period. All samples were assayed by LC-MS/MS using electrospray ionization. The apparent permeability (Papp) and percent recovery were calculated as follows: Papp=(dCr/dt)×Vr/(A×CA) (1) Percent Recovery=100×((Vr×Cr^final)+(Vd×Cd^final))/(Vd×CN) (2), where, dCr/dt is the slope of the cumulative receiver concentration versus time in μM s^−1; Vr is the volume of the receiver compartment in cm^3; Vd is the volume of the donor compartment in cm^3; A is the area of the insert (1.13 cm^2 for 12-well); CA is the average of the nominal dosing concentration and the measured 120-minute donor concentration in μM; CN is the nominal concentration of the dosing solution in μM; Cr^final is the cumulative receiver concentration in μM at the end of the incubation period; Cd^final is the concentration of the donor in μM at the end of the incubation period. Efflux ratio (ER) is defined as Papp (B-to-A)/Papp (A-to-B).

T1 sequence (P43220 24-463): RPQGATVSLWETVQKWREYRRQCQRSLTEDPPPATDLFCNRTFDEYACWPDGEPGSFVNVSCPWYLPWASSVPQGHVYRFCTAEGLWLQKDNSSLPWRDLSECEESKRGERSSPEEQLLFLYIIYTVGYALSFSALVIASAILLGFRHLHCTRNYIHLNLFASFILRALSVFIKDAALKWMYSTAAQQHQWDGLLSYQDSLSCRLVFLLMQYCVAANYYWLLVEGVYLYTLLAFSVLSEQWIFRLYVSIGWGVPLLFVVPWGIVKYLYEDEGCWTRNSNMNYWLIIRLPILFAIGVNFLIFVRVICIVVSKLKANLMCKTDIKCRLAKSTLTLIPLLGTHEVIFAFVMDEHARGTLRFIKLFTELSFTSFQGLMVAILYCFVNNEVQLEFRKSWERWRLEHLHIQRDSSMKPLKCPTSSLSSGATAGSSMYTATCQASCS

Structure (SMILES) | EC50 (human GLP-1R receptor) [nM] | AUC (Rat pharmacokinetics [1]) [ng·h/mL] | Cmax (Rat pharmacokinetics [2]) [ng/mL] | half-life (Rat pharmacokinetics [1]) [h] | efflux ratio at 120 min, 5 μM ([3]; pH 7.4, Caco-2, efflux ratio = Papp (B-to-A)/Papp (A-to-B), read-out: ER) | Papp A→B at 120 min, 5 μM ([3]; Caco-2, 5 μM, pH 7.4, 120 minutes) [×10⁻⁶ cm/s]
C[C@@]1(c2ccc(C#N)cc2F)Oc2cccc(N3CCN(Cc4nc5ccc(C(=O)O)cc5n4Cc4cncs4)[C@@H]4C[C@@H]43)c2O1 [Compound 37, 2-((5-(2-(4-Cyano-2-fluorophenyl)-2-methylbenzo[d][1,3]dioxol-4-yl)-2,5-diazabicyclo[4.1.0]heptan-2-yl)methyl)-1-(thiazol-5-ylmethyl)-1H-benzo[d]imidazole-6-carboxylic Acid] | < 5 | 15.8 ± 7.6 | 20 ± 7.7 | – | – | –
C[C@]1(c2ccc(C#N)cc2F)Oc2cccc(N3CCN(Cc4nc5ccc(C(=O)O)cc5n4Cc4cncs4)[C@@H]4C[C@@H]43)c2O1 [Compound 38, 2-((5-(2-(4-Cyano-2-fluorophenyl)-2-methylbenzo[d][1,3]dioxol-4-yl)-2,5-diazabicyclo[4.1.0]heptan-2-yl)methyl)-1-(thiazol-5-ylmethyl)-1H-benzo[d]imidazole-6-carboxylic Acid] | > 100 | 109 ± 21.5 | 58.3 ± 9.74 | 1.6 | – | –
CC1(c2ccc(C#N)cc2F)Oc2cccc(N3CCN(Cc4nc5ccc(C(=O)O)cc5n4Cc4cncs4)C4CC43)c2O1 (centres unmarked) [Compound 34, 2-((5-(2-(4-Cyano-2-fluorophenyl)-2-methylbenzo[d][1,3]dioxol-4-yl)-2,5-diazabicyclo[4.1.0]heptan-2-yl)methyl)-1-(thiazol-5-ylmethyl)-1H-benzo[d]imidazole-6-carboxylic Acid] | < 5 | – | – | – | 1.82 | 19.9
C[C@]1(c2ccc(C#N)cc2F)Oc2cccc(N3CCN(Cc4nc5ccc(C(=O)O)cc5n4Cc4cncs4)[C@H]4C[C@H]43)c2O1 [Compound 36, 2-((5-(2-(4-Cyano-2-fluorophenyl)-2-methylbenzo[d][1,3]dioxol-4-yl)-2,5-diazabicyclo[4.1.0]heptan-2-yl)methyl)-1-(thiazol-5-ylmethyl)-1H-benzo[d]imidazole-6-carboxylic Acid] | 5 to 50 | 20.7 ± 12.6 | 19.3 ± 2.7 | 1.8 | – | –
